System: STHdh^Q111 cells
Assay: 384-well PI (propidium iodide) assay, protection from mHTT induced cell death
Assay type: cell-based, mouse
Settings: FIG. 10
Experimental: The well-established STHdh^Q111 cell model for HD was employed to identify compounds that can protect neuronal cells from mHTT-dependent cell death. […] The propidium iodide (PI) readout enables an unbiased assessment of cell death by measuring an irreversible step that is common to all cytotoxic mechanisms.
The stress conditions for testing compounds involved incubation of the cells in serum-free medium at 37° C. and 5% CO2.
Prior to compound treatment, medium was removed and the cells washed once with PBS (pH=7.4) after which 45 μl of complete medium was added. Compounds in 5 μl complete medium were added to cells. […] Compounds in serum free medium (5 μl) were added and cells were incubated at 37° C. and 5% CO2.
Image analysis was carried out using the Multiwavelength Cell Scoring application in the MetaXpress software. The nuclear compartment was identified in Ch1 with a threshold intensity of 2,000 above background and the Texas Red compartment was identified in Ch2 with a threshold intensity of 20,000 above background.
For the analyses presented here the Percent Recovery was calculated from the Percent PI positive cells by:
[formula] where positive controls are the STHdh^Q7 cells, and negative controls are the STHdh^Q111 cells treated with DMSO
The LOPAC library was screened in the 384-well PI assay at 30, 10, and 3 μM.

CCOc1ccc2nc(S(C)(=O)=O)sc2c1 [methyl sulfonyl analog of ETX, 6-ethoxy-2-(methylsulfonyl) benzo[d]thiazole]
efficacy relative to ethoxzolamide: equally efficacious
STHdh^Q111 cells protected (maximal protection): ~50%
potency in protecting STHdh^Q111 cells relative to ETX (propidium iodide assay): 7 fold

Reference: US11253594B2, “Drug combinations for protecting against neuronal cell death” (UNIVERSITY OF PITTSBURGH-OF THE COMMONWEALTH SYSTEM OF …, priority 2017, dated 2022)
